Test results as given in US8912209B2, “Rock inhibitors” (Amakem NV, priority 2010, dated 2014).
pIC50: −log10 of the molar value.

Molecular target: T1, ROCKα/ROCKII (Homo sapiens, UniProt O75116)
T1 construct: purchased Upstate Biotechnology 14-451
Assay: ROCK inhibition, Method 2 fluorescence polarization (FP) assay, ROCK IMAP Kit
Type: biochemical
Details: 10 μM ATP, read-out: IC50 Meth. 2
Experimental: The inhibition assays were performed with a fluorescence polarization (FP) assay using the commercially available ROCK IMAP Kit from Molecular Devices (Product ID. No. R8093), essentially in accordance with the protocol supplied by the manufacturer. […] The enzyme mix ROCKα/ROCKII was obtained from Upstate Biotechnology (Product ID No 14-451).
In summary, all compounds were screened in the wells of a 384 well plate for enzymatic inhibition with concentrations varying from 100 μM to 0.3 nM using a stepwise 3 (or 2)-fold dilution.
To perform the assay, 1 μl of a solution of the compound to be tested in DMSO (at each concentration) was added to 2 μl of a solution of the enzyme in 10 mM Tris-HCl, 10 mM MgCl2, 0.1% BSA, 0.05% NaN3, pH 7,2. The final concentration of the enzyme was 2.6 nM.
After incubating for 30 minutes at RT, 2 μl of a mixture of ATP and the protein substrate in 10 mM Tris-HCl, 10 mM MgCl2, 0.1% BSA, 0.05% NaN3, pH 7.2 was added. The final concentration of the ATP was 10 μM and final concentration of protein substrate was 0.2 μM.
After incubating for 60 minutes at RT, 12 μl of the IMAP Binding Solution (mix of the IMAP Binding Buffer A (1×) and the IMAP Binding Reagent (from the ROCK IMAP kit)) was added.
The mixture thus obtained (total volume: 17 μl) was incubated for 60 minutes at RT, upon which the fluorescence polarization was measured using an automated plate reader (Perkin Elmer, Model Envision 2100-0010 HTS) with FP filters: excitation filter FITC FP 480 and emission filters FITC FP P-pol 535 and FITC FP S-pol 535 (Perkin-Elmer). The results were fitted to a curve using the XL-Fit algorithm and IC50 values were calculated for each fitted curve, again using the XL-Fit algorithm.

T1 sequence (O75116 whole entry): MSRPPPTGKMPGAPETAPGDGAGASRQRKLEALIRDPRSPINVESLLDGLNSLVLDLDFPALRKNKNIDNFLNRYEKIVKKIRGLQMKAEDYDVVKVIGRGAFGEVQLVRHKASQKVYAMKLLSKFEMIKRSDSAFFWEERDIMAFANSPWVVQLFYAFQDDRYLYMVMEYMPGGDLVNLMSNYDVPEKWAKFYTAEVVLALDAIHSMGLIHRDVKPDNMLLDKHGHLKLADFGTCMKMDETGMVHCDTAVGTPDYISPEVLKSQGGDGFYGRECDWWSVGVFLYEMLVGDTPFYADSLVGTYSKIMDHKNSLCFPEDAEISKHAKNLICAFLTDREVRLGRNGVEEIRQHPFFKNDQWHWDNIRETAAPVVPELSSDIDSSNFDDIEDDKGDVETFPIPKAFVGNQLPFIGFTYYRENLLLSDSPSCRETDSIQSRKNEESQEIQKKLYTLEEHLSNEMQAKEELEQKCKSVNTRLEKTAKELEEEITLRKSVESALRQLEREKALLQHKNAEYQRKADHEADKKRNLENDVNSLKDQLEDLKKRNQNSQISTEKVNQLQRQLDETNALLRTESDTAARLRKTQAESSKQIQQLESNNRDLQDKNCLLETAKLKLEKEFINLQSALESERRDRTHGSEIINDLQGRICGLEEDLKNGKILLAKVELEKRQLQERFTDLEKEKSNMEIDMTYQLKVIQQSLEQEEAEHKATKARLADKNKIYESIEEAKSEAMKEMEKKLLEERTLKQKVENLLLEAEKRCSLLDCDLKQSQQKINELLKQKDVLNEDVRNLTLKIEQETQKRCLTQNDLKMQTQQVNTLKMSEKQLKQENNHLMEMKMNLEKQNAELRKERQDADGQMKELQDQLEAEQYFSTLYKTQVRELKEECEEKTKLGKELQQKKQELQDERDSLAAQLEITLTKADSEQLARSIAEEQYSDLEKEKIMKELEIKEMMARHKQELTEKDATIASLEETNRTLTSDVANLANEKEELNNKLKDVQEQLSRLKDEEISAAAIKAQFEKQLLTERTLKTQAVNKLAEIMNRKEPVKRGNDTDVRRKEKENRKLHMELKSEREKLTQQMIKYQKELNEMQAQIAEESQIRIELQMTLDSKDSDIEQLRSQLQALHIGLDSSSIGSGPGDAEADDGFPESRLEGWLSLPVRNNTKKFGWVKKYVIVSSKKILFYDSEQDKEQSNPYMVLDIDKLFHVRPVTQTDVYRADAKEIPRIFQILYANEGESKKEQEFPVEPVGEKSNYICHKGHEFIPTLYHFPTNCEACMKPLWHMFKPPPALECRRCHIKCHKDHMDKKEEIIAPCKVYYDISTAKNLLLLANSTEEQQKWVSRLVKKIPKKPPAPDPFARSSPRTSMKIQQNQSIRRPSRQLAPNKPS

2′-(1-Amino-ethyl)-5′- (pyridin-4-ylcarbamoyl)- biphenyl-3-carboxylic acid 2-(toluene-4-sulfonyl)-ethyl ester [Compound 89]
pIC50: 6.00 to 7.00

2′-(1-Amino-ethyl)-5′- (pyridin-4-ylcarbamoyl)- biphenyl-3-carboxylic acid 4-methylsulfanyl-phenyl ester [Compound 86]
pIC50: > 7.00

COC(=O)c1cccc(-c2cc(C(=O)Nc3ccncc3)ccc2C(C)N)c1 (stereo not drawn) [Compound 4, 2′-(1-Amino-ethyl)-5′-(pyridin-4-ylcarbamoyl)-biphenyl-3-carboxylic acid methyl ester]
pIC50: > 7.00

CCOC(=O)c1cccc(-c2cc(C(=O)Nc3ccncc3F)ccc2C(C)N)c1 (stereo not drawn) [Compound 9, 2′-(1-Amino-ethyl)-5′-(3-fluoro-pyridin-4-ylcarbamoyl)-biphenyl-3-carboxylic acid ethyl ester]
pIC50: > 7.00

CCCCCOC(=O)c1cccc(-c2cc(C(=O)Nc3ccncc3)ccc2C(C)N)c1 (stereo not drawn) [Compound 16, 2′-(1-Amino-ethyl)-5′-(pyridin-4-ylcarbamoyl)-biphenyl-3-carboxylic acid pentyl ester]
pIC50: 6.00 to 7.00

CCCCCCCOC(=O)c1cccc(-c2cc(C(=O)Nc3ccncc3)ccc2C(C)N)c1 (stereo not drawn) [Compound 18, 2′-(1-Amino-ethyl)-5′-(pyridin-4-ylcarbamoyl)-biphenyl-3-carboxylic acid heptyl ester]
pIC50: 6.00 to 7.00

CCCCCCCCOC(=O)c1cccc(-c2cc(C(=O)Nc3ccncc3)ccc2C(C)N)c1 (stereo not drawn) [Compound 19, 2′-(1-Amino-ethyl)-5′-(pyridin-4-ylcarbamoyl)-biphenyl-3-carboxylic acid octyl ester]
pIC50: 6.00 to 7.00

CCCCCCCCCCOC(=O)c1cccc(-c2cc(C(=O)Nc3ccncc3)ccc2C(C)N)c1 (stereo not drawn) [Compound 20, 2′-(1-Amino-ethyl)-5′-(pyridin-4-ylcarbamoyl)-biphenyl-3-carboxylic acid decyl ester]
pIC50: 5.00 to 6.00

CCCCCCCCCCCOC(=O)c1cccc(-c2cc(C(=O)Nc3ccncc3)ccc2C(C)N)c1 (stereo not drawn) [Compound 21, 2′-(1-Amino-ethyl)-5′-(pyridin-4-ylcarbamoyl)-biphenyl-3-carboxylic acid undecyl ester]
pIC50: 5.00 to 6.00

CCCCCCCCCCCCOC(=O)c1cccc(-c2cc(C(=O)Nc3ccncc3)ccc2C(C)N)c1 (stereo not drawn) [Compound 22, 2′-(1-Amino-ethyl)-5′-(pyridin-4-ylcarbamoyl)-biphenyl-3-carboxylic acid dodecyl ester]
pIC50: 5.00 to 6.00

CCCCCCCCCCCCCOC(=O)c1cccc(-c2cc(C(=O)Nc3ccncc3)ccc2C(C)N)c1 (stereo not drawn) [Compound 23, 2′-(1-Amino-ethyl)-5′-(pyridin-4-ylcarbamoyl)-biphenyl-3-carboxylic acid tridecyl ester]
pIC50: 5.00 to 6.00

CCCCCCCCCCCCCCCCOC(=O)c1cccc(-c2cc(C(=O)Nc3ccncc3)ccc2C(C)N)c1 (stereo not drawn) [Compound 24, 2′-(1-Amino-ethyl)-5′-(pyridin-4-ylcarbamoyl)-biphenyl-3-carboxylic acid hexadecyl ester]
pIC50: 5.00 to 6.00

C=CCCCCCCCCOC(=O)c1cccc(-c2cc(C(=O)Nc3ccncc3)ccc2C(C)N)c1 (stereo not drawn) [Compound 25, 2′-(1-Amino-ethyl)-5′-(pyridin-4-ylcarbamoyl)-biphenyl-3-carboxylic acid dec-9-enyl ester]
pIC50: 6.00 to 7.00

CC(C)OC(=O)c1cccc(-c2cc(C(=O)Nc3ccncc3)ccc2C(C)N)c1 (stereo not drawn) [Compound 27, 2′-(1-Amino-ethyl)-5′-(pyridin-4-ylcarbamoyl)-biphenyl-3-carboxylic acid isopropyl ester]
pIC50: > 7.00

CC(N)c1ccc(C(=O)Nc2ccncc2)cc1-c1cccc(C(=O)OC2CCCC2)c1 (stereo not drawn) [Compound 33, 2′-(1-Amino-ethyl)-5′-(pyridin-4-ylcarbamoyl)-biphenyl-3-carboxylic acid cyclopentyl ester]
pIC50: > 7.00

CC(N)c1ccc(C(=O)Nc2ccncc2)cc1-c1cccc(C(=O)OC2CCCCC2)c1 (stereo not drawn) [Compound 34, 2′-(1-Amino-ethyl)-5′-(pyridin-4-ylcarbamoyl)-biphenyl-3-carboxylic acid cyclohexyl ester]
pIC50: > 7.00

CC(N)c1ccc(C(=O)Nc2ccncc2)cc1-c1cccc(C(=O)OCC2CC2)c1 (stereo not drawn) [Compound 36, 2′-(1-Amino-ethyl)-5′-(pyridin-4-ylcarbamoyl)-biphenyl-3-carboxylic acid cyclopropylmethyl ester]
pIC50: > 7.00

CC(C)COC(=O)c1cccc(-c2cc(C(=O)Nc3ccncc3)ccc2C(C)N)c1 (stereo not drawn) [Compound 40, 2′-(1-Amino-ethyl)-5′-(pyridin-4-ylcarbamoyl)-biphenyl-3-carboxylic acid isobutyl ester]
pIC50: > 7.00

CC(N)c1ccc(C(=O)Nc2ccncc2)cc1-c1cccc(C(=O)OCC2COc3ccccc3O2)c1 (stereo not drawn) [Compound 56, 2′-(1-Amino-ethyl)-5′-(pyridin-4-ylcarbamoyl)-biphenyl-3-carboxylic acid 2,3-dihydro-benzo[1,4]dioxin-2-ylmethyl ester]
pIC50: 6.00 to 7.00

CC#CCOC(=O)c1cccc(-c2cc(C(=O)Nc3ccncc3)ccc2C(C)N)c1 (stereo not drawn) [Compound 59, 2′-(1-Amino-ethyl)-5′-(pyridin-4-ylcarbamoyl)-biphenyl-3-carboxylic acid but-2-ynyl ester]
pIC50: > 7.00

CC(N)c1ccc(C(=O)Nc2ccncc2F)cc1-c1cccc(C(=O)OCCF)c1 (stereo not drawn) [Compound 61, 2′-(1-Amino-ethyl)-5′-(3-fluoro-pyridin-4-ylcarbamoyl)-biphenyl-3-carboxylic acid 2-fluoro-ethyl ester]
pIC50: 6.00 to 7.00

CC(N)c1ccc(C(=O)Nc2ccncc2)cc1-c1cccc(C(=O)OCCCl)c1 (stereo not drawn) [Compound 62, 2′-(1-Amino-ethyl)-5′-(pyridin-4-ylcarbamoyl)-biphenyl-3-carboxylic acid 2-chloro-ethyl ester]
pIC50: > 7.00

CC(N)c1ccc(C(=O)Nc2ccncc2)cc1-c1cccc(C(=O)OCC(F)(F)F)c1 (stereo not drawn) [Compound 63, 2′-(1-Amino-ethyl)-5′-(pyridin-4-ylcarbamoyl)-biphenyl-3-carboxylic acid 2,2,2-trifluoro-ethyl ester]
pIC50: 6.00 to 7.00

CC(N)c1ccc(C(=O)Nc2ccncc2)cc1-c1cccc(C(=O)OCC(Cl)(Cl)Cl)c1 (stereo not drawn) [Compound 64, 2′-(1-Amino-ethyl)-5′-(pyridin-4-ylcarbamoyl)-biphenyl-3-carboxylic acid 2,2,2-trichloro-ethyl ester]
pIC50: > 7.00

CC(N)c1ccc(C(=O)Nc2ccncc2F)cc1-c1cccc(C(=O)OCCO)c1 (stereo not drawn) [Compound 67, 2′-(1-Amino-ethyl)-5′-(3-fluoro-pyridin-4-ylcarbamoyl)-biphenyl-3-carboxylic acid 2-hydroxy-ethyl ester]
pIC50: > 7.00

CC(N)c1ccc(C(=O)Nc2ccncc2F)cc1-c1cccc(C(=O)OCCCO)c1 (stereo not drawn) [Compound 68, 2′-(1-Amino-ethyl)-5′-(3-fluoro-pyridin-4-ylcarbamoyl)-biphenyl-3-carboxylic acid 3-hydroxy-propyl ester]
pIC50: > 7.00

CC(N)c1ccc(C(=O)Nc2ccncc2)cc1-c1cccc(C(=O)OCCCCCl)c1 (stereo not drawn) [Compound 69, 2′-(1-Amino-ethyl)-5′-(pyridin-4-ylcarbamoyl)-biphenyl-3-carboxylic acid 4-chloro-butyl ester]
pIC50: > 7.00

CC(N)c1ccc(C(=O)Nc2ccncc2)cc1-c1cccc(C(=O)Oc2ccc(F)cc2)c1 (stereo not drawn) [Compound 72, 2′-(1-Amino-ethyl)-5′-(pyridin-4-ylcarbamoyl)-biphenyl-3-carboxylic acid 4-fluoro-phenyl ester]
pIC50: > 7.00

Cc1ccc(OC(=O)c2cccc(-c3cc(C(=O)Nc4ccncc4)ccc3C(C)N)c2)cc1 (stereo not drawn) [Compound 73, 2′-(1-Amino-ethyl)-5′-(pyridin-4-ylcarbamoyl)-biphenyl-3-carboxylic acid p-tolyl ester]
pIC50: > 7.00

COc1cccc(OC)c1OC(=O)c1cccc(-c2cc(C(=O)Nc3ccncc3)ccc2C(C)N)c1 (stereo not drawn) [Compound 74, 2′-(1-Amino-ethyl)-5′-(pyridin-4-ylcarbamoyl)-biphenyl-3-carboxylic acid 2,6-dimethoxy-phenyl ester]
pIC50: 6.00 to 7.00

COc1cc(OC)cc(OC(=O)c2cccc(-c3cc(C(=O)Nc4ccncc4)ccc3C(C)N)c2)c1 (stereo not drawn) [Compound 75, 2′-(1-Amino-ethyl)-5′-(pyridin-4-ylcarbamoyl)-biphenyl-3-carboxylic acid 3,5-dimethoxy-phenyl ester]
pIC50: > 7.00

COc1cc(OC)cc(OC(=O)c2cccc(-c3cc(C(=O)Nc4ccncc4F)ccc3C(C)N)c2)c1 (stereo not drawn) [Compound 76, 2′-(1-Amino-ethyl)-5′-(3-fluoro-pyridin-4-ylcarbamoyl)-biphenyl-3-carboxylic acid 3,5-dimethoxy-phenyl ester]
pIC50: 6.00 to 7.00

COc1ccc(OC(=O)c2cccc(-c3cc(C(=O)Nc4ccncc4)ccc3C(C)N)c2)cc1OC (stereo not drawn) [Compound 77, 2′-(1-Amino-ethyl)-5′-(pyridin-4-ylcarbamoyl)-biphenyl-3-carboxylic acid 3,4-dimethoxy-phenyl ester]
pIC50: > 7.00
